Results from PubChem BioAssay (NCI).
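Grown in 96-well plates, cells were treated for 48 hours with each compound at five concentrations. Insufficient inhibition: endpoint recorded as highest concentration tested. GI50 = concentration required for 50% inhibition of growth. TGI: total growth inhibition.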

Key:
Experiment in all cases: growth of human tumour cells (NCI), 48 h
IGROV1 ovarian = tested on: IGROV1 ovarian
A498 renal = tested on: A498 renal
SW-620 colon = tested on: SW-620 colon
SF-295 CNS = tested on: SF-295 CNS
NCI-H460 lung = tested on: NCI-H460 lung
MOLT-4 leukemia = tested on: MOLT-4 leukemia
HT29 colon = tested on: HT29 colon
HCT-15 colon = tested on: HCT-15 colon
DU-145 prostate = tested on: DU-145 prostate
SK-MEL-2 melanoma = tested on: SK-MEL-2 melanoma

SMILES	GI50 (IGROV1 ovarian) [µM]	TGI (IGROV1 ovarian) [µM]	GI50 (A498 renal) [µM]	TGI (A498 renal) [µM]	GI50 (SW-620 colon) [µM]	TGI (SW-620 colon) [µM]	GI50 (SF-295 CNS) [µM]	TGI (SF-295 CNS) [µM]	GI50 (NCI-H460 lung) [µM]	TGI (NCI-H460 lung) [µM]	GI50 (MOLT-4 leukemia) [µM]	TGI (MOLT-4 leukemia) [µM]	GI50 (HT29 colon) [µM]	TGI (HT29 colon) [µM]	GI50 (HCT-15 colon) [µM]	TGI (HCT-15 colon) [µM]	GI50 (DU-145 prostate) [µM]	TGI (DU-145 prostate) [µM]	TGI (SK-MEL-2 melanoma) [µM]	GI50 (SK-MEL-2 melanoma) [µM]
Cc1[nH]c(=O)nc(Nc2ccc(Cl)cc2)c1C(=O)N1CCN(CCO)CC1	> 100	> 100	42.2	> 100	> 100	> 100	32.1	> 100	> 100	> 100	> 100	> 100	> 100	> 100	> 100	> 100	> 100	> 100		
COc1cccc(NC(=O)CC(=O)N2N=C(N3c4ccccc4Sc4ccccc43)CC2c2ccccc2)c1 (stereo not drawn)		> 100		> 100		> 100		> 100		> 100		> 100		> 100		> 100				
CCCN(CCC)C(=O)C(=O)c1c(N)[nH]n(-c2ccccc2)c1=O		> 100		> 100		> 100		> 100		> 100		> 100		> 100		> 100			> 100	
CN(C)C(=O)c1cnc2oc3ccc(O)cc3c2c1-c1ccccc1	> 25	> 25			> 25	> 25	> 25	> 25	16.2	> 25	> 25	> 25			> 25	> 25	> 25	> 25	> 25	> 25
CCOC(=O)/C(O)=C(/C(=O)OC)c1ccc(Cl)cc1		> 100		> 100		> 100		> 100		> 100		> 100		> 100		> 100			> 100	
Cc1nn(-c2ccc([N+](=O)[O-])cc2)c2ncnc(N/N=C/c3ccccc3O)c12	0.462	4.31	2.92	> 66.9			1.14	10.3	0.34	1.46	0.321	> 100	1.3	> 100			0.382	> 100	> 45	1.57
C[C@]12CCC(=O)CC1CCCC2=O (stereo partly drawn)		> 100		> 100		> 100		> 100		> 100		> 100		> 100		> 100			> 100	
O=C(O)c1nc(-c2ccc(Cl)c(Cl)c2)nc2ccc(Cl)cc12		> 100		> 100		> 100		> 100		> 100		> 100		> 100		> 100			> 100	
[O-]c1ccccc1/C=N/C(/N=C/c1ccccc1[O-])c1ccccc1O.[O-]c1ccccc1/C=N/C(/N=C/c1ccccc1[O-])c1ccccc1O.[Zr+4]	56.4	> 100			26.6	> 100	31.8	> 100	34	> 100	25.2	> 100	42	> 100	50.3	> 100				
O=[N+]([O-])c1cc(Cl)cnc1Br		8.32		32		12.7		10.6		15.2		4.52		8.51		7.11		> 100		
CCSc1nc(SCC)c2c(-c3ccc(OC)c(OC)c3)c(C#N)c(SCC)nc2n1	33.5	> 100			61.1	> 100	12.9	39.9	21.8	> 100	68.5	> 100			24.6	61.2	17.7	47.8	> 100	63.8
Cn1cc(-c2csc(-c3cn(CCCN4CCCCC4)c4ccccc34)n2)c2cccnc21	1.61	3.35	13.7	28.7	1.95	3.74	1.71	3.18	2.04	4			1.89	3.62	1.7	3.2	1.75	3.17	38.5	18.8
C[CH2][Sn]([CH2]C)([O]C(=O)c1ccccc1F)[O][Sn]([CH2]C)([CH2]C)[O]C(=O)c1ccccc1F	> 87.8	> 100	22.5	37.4	20.3	36.5	42.1	> 57.8	> 54	> 100	22	> 75.3	39.8	> 72.7	34.3	> 62.8			38.6	19.1
Nc1ccccc1C#C/C=C\C#Cc1cccc(O)c1	0.646	12.3	11	35.9	3.12	15.2	2.19	8.29	3.19	> 34.2	3.21	23.7	11.4	41.7	2.04	13.9	16.8	> 57.7		
O=S(=O)(/C=C/CS(=O)(=O)c1ccccc1)c1ccccc1		> 100		82.3		45.7		93.6		63.9		74		> 100		45.6			29.3	
O=C1/C(=N\O)S(=O)(=O)c2ccccc21		> 100		> 100		> 100		> 100		> 100		> 100		> 100		> 100			> 100	
Cc1ccc(-c2csc(NC(=O)N3CCN(c4cc5c(cc4F)c(=O)c(C(=O)O)cn5C4CC4)CC3)n2)cc1	0.482	> 100	0.572	9.16	1.9	> 100	0.762	28.5	0.355	> 100			0.307	> 100	0.417	> 100	0.428	> 100	4.36	1.37

SMILES	GI50 (IGROV1 ovarian) [µM]	TGI (IGROV1 ovarian) [µM]	GI50 (A498 renal) [µM]	TGI (A498 renal) [µM]	GI50 (SW-620 colon) [µM]	TGI (SW-620 colon) [µM]	GI50 (SF-295 CNS) [µM]	TGI (SF-295 CNS) [µM]	GI50 (NCI-H460 lung) [µM]	TGI (NCI-H460 lung) [µM]	GI50 (MOLT-4 leukemia) [µM]	TGI (MOLT-4 leukemia) [µM]	GI50 (HT29 colon) [µM]	TGI (HT29 colon) [µM]	GI50 (HCT-15 colon) [µM]	TGI (HCT-15 colon) [µM]	GI50 (DU-145 prostate) [µM]	TGI (DU-145 prostate) [µM]	TGI (SK-MEL-2 melanoma) [µM]	GI50 (SK-MEL-2 melanoma) [µM]
C[C@]12CC[C@@H]3c4ccc(O)cc4CC[C@H]3[C@@H]1Cc1cnc(N)nc12	35.1	> 100			22.4	45.9	15.2	42.7	9.95	24.9	13	41.1	52.9	> 100	16.5	39.1	17.8	47.3	> 100	26.9
Nc1ncnc2c1c(-c1ccc(Oc3ccccc3)cc1)nn2C[C@@H]1SSC[C@H]1O	1.34	4.2	2.18	5.53	17.3	55	2.7	9.25	0.281	1.45			0.732	7.98	1.16	7.31	2.26	8.97	3.13	0.826
CC1=C(CCC(C)NCc2ccc(OCCCN3CCCCC3)cc2)C(C)(C)CCC1 (stereo not drawn)	1.68	3.89	1.43	2.95	1.6	3.32	1.66	3.23	1.53	3.28			0.384	1.38	0.575	2.03	1.85	4.17	3.08	1.49
CCC[CH2][Sn]1([CH2]CCC)[O]C2C(CO)OC(n3ccc(N)nc3=O)C2[O]1 (stereo not drawn)	1.02	2.78	0.271	1.17			1.93	3.72	1.79	3.6	1.64	> 100			1.27	2.7	1.34	2.61	2.29	0.964
CC(C)(c1ccccc1)c1ccc(Oc2ccc(C#N)c(C#N)c2)cc1	> 100	> 100	> 100	> 100		> 100		> 100	> 100	> 100		> 100							> 100	> 100
CC1(C)CC2CC(CC(C)(C)C2=O)C1=O		> 100		> 100		> 100		> 100		> 100		> 100		> 100		> 100			> 100	
CNC(=O)OCc1c2ccncc2c(C)c2c1[nH]c1ccc(OC)cc12		4.56		0.458		> 100		> 100		1.3		0.516		> 100		> 100			0.509	
COc1ccc(C(=O)/C=C/c2cccc(Nc3ccnc4cc(Cl)ccc34)c2)cc1	1.44	6.53	3	55.3	1.98	20	0.694	16.3	2.23	> 100	2.9	> 100	1.64	> 100	2.04	> 100	2.45	> 100		
CC[C@H](CO)Nc1nc(NCc2ccccc2)c2ncn(C(C)C)c2n1	11.9	> 86.2	30.1	> 88.7	49.3	> 100	21.8	> 79.6		> 100			24.3	> 100		> 81.6	19.9	> 100	44.6	
OCCn1cnc2c(SCc3ccccc3)ncnc21		> 100		> 100		> 100		> 100		> 100				> 100		> 100		> 100	> 100	
CC(=O)[CH-]C(=O)c1ccccc1.CC(=O)[CH-]C(=O)c1ccccc1.CC(=O)[CH-]C(=O)c1ccccc1.[In+3]	91.4	> 100	23.2	56.8	53.1	> 100	24.2	93.5	16.6	> 100			31.9	> 100					34.2	13
O=C(NC(=Nc1ccccc1)SCCSC(=Nc1ccccc1)NC(=O)c1cccs1)c1cccs1		> 100		> 100		> 100		> 100		> 100		> 100		> 100		> 100			> 100	
CC(C)CCNCC(O)Cn1c2ccccc2c2ccccc21 (stereo not drawn)	14	32.1	9.52	22.8	10.4	24	19.4	39.4	3.64	13.7	10.2	25.9	3.42	10.6	11.9	26.7	14.6	27.9		
O=C(N/C(=C\c1ccc(/C=C(\NC(=O)c2ccccc2)c2nc3ccccc3[nH]2)cc1)c1nc2ccccc2[nH]1)c1ccccc1		> 100		> 100		> 100		> 100		> 100		> 100		> 100		> 100			> 100	
COc1ccc(COC2CC(OC)OC(C)C2OC(=O)c2ccccc2)cc1 (stereo not drawn)		> 100		> 100		> 100		> 100		> 100		40.1		39.6		> 59.5			> 100	
Oc1c(Cl)c(Cl)c(O)c2c1CCCC2				33.1		3.92		37.6		31.9				44.6		29.7			45.4	
c1ccc2[nH]c(-c3cc(-c4ccc5c(c4)OCO5)n[nH]3)nc2c1	3.66	15.9	1.7	12.8	5.87	21.4	3.24	14.6	4.57	17.7	2.68	20.9	3.66	15	3.86	20.3	7.27	22		
